The source of these data is publication PMC6934184, “Selective DNA-PKcs inhibition extends the therapeutic index of localized radiotherapy and chemotherapy” (The Journal of Clinical Investigation, 2019).

The test deals with T1, PRKD1 (PKC mu) (Homo sapiens, UniProt Q15139).
T1 construct: purchased Thermo Fisher Scientific (Life Technologies) SelectScreen
Briefly: SelectScreen Z'LYTE. The class given is biochemical. The essentials:
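NU5455 was profiled across the SelectScreen Broad panel of kinase activity and binding assays. Z'LYTE reactions such as CSF1R ran at apparent Km ATP, while the Adapta CAMK1 assay used ATP listed as 10. Values are given as percent.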

T1 sequence (Q15139 whole entry): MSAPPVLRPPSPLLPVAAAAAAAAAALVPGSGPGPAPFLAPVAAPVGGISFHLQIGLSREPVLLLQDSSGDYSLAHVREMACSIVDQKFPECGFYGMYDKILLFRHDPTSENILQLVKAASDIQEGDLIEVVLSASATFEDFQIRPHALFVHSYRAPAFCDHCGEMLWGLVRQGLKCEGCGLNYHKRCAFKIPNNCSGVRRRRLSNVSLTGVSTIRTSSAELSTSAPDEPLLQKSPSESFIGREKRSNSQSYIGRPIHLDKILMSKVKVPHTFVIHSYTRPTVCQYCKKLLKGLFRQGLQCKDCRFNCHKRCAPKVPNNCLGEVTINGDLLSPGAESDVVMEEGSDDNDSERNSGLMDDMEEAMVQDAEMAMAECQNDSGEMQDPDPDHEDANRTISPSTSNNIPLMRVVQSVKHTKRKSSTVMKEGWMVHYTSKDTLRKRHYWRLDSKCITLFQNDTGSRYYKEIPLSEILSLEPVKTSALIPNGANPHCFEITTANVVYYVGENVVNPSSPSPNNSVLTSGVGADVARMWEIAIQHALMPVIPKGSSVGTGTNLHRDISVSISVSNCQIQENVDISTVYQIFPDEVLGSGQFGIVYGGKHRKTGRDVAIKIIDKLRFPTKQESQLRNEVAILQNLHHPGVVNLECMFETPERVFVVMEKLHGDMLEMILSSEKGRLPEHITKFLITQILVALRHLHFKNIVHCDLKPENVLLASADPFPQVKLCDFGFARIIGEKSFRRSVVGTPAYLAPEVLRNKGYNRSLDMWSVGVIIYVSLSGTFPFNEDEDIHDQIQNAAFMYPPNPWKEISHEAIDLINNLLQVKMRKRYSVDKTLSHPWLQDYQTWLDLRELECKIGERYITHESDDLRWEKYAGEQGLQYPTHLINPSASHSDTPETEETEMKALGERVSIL

The term inhibition denotes the relative decrease from the control value, in per cent. For `CN(C(=O)CN1CCOCC1)c1ccc2sc3c(-c4cccc5c(=O)cc(N6CC7CCC(C6)O7)oc45)cccc3c2c1` [NU5455], the inhibition at 1 µM was -8.5%.
